Experiments:
[1] = Aqueous-phase size-exclusion chromatography (SEC-HPLC), aggregation; format: physicochemical
Experimental: This derivatized metallofullerene, Gd@C60(C(COOCH2CH3)2)x, can be converted to a water-soluble species by de-esterification to carboxylic acid or carboxylate salt groups. This is performed by the method of Hirsch (Lamparth, 1994). The ester derivative (100 mg) is dissolved in toluene (15 mL) and vigorously stirred at reflux with excess solid NaH (100 mg) under argon for 2-3 hours. Next, methanol (3 mL) is added with stirring. Vigorous bubbling is observed, followed by precipitation of the sodium carboxylate salt of the Gd@C60 derivative. The solid is isolated, dissolved in water, and partially purified with dialysis tubing (MW cutoff˜500). The water is removed from an aqueous solution of the carboxylate with a rotary evaporator connected to a vacuum source; it is important to avoid decarboxylation by heating gently (<50° C.). Lowering the pH of aqueous solutions of the carboxylate salt can produce the acid form, which may have less water solubility depending on the number of acid groups present. […] Ion-exchange resin (Dowex-50, etc. etc.) can be used to change the counterion in Gd@C60(C(COONa)2)x to other alkali metals etc. or to hydrogen (proton) i.e. Gd@C60(C(COOH)2)x.

[2] = Solubility of fullerenic species and their derivatives in solvents; format: physicochemical; conditions: for solubility of derivative in organic solvents: common polar and non-polar organic solvents; for solubility class: both non-polar and polar solvents
Text: Insoluble fullerenes are any fullerenic species generated by any known method which are not soluble in solvents (common solvents, i.e., non-polar organic solvents, such as hydrocarbons and arenes and halogenated arenes, including toluene, benzene) commonly employed to solublize fullerenes, such as C60. Solubility (or lack thereof) of a given fullerenic species in a given solvent can be assessed by methods known in the art, e.g., by assessing how much of a fullerenic species can be extracted into a given amount of solvent, for example, using mass spectrometric methods as illustrated herein. The insoluble classes of fullerenes are also insoluble in polar solvents. […] Non-derivatized fullerenic species are in general not soluble in almost all polar solvents. However, fullerenic species, if soluble have an anomalously high solubility in polar chloro and bromo substituted arenes. As discussed herein and as is understood in the art certain classes of non-derivatized fullerenic species are soluble in non-polar solvents such as toluene and benzene.
The methods of this invention can be used to derivatize insoluble fullerenic species and related carbon nanotube species to make them soluble (or to enhance the solubility of given fullerenic species or carbon nanotubes). Derivatization reaction of this invention may render the derivatized species soluble (or enhance its solubility) in common non-polar solvents or it may render the derivatized species soluble (or enhance its solubility) in polar solvents. For purposes of this application, solubility is defined as the dissolution of free molecules (or salts) in the solvent with reversibility to remove the solvent to obtain the molecules (or salts) dissolved. In preferred cases, the solvent is readily removed by application of reduced pressure and/ or by non-destructive heating. A species may also be removed from solution by recrystallization, for example by addition of solvent in which the species is not soluble to the solution. Certain solvents may readily dissolve a given species, but may not be removable to regenerate the species that was dissolved or it may not be possible to recrystallize the species unchanged. For example, the solvent may only be partially removable or the solvent may have reacted with the species causing a chemical change or irreversible adduct formation.
In general, fullerenes have “low solubility” in all solvents compared to most organic compounds. […] C60 is insoluble in polar solvents like acetonitrile and methanol (no measurable amount dissolves). […] C60 is soluble in substituted naphthalenes (30 to 50 mg/mL). […] As noted above, insoluble classes of fullerenic species are also insoluble in polar solvents.

[3] = Air/water stability of derivatized materials (long-term stability of solutions, re-dissolution of exposed solids); format: physicochemical; conditions: presence of oxygen and/or water; no evidence for decomposition over several months time
[4] = aqueous; compared with conventional inorganic chelates; cited from earlier work

Substance: Gd@C60(C(COONa)2)x
- aggregation state in aqueous solution [1]: not clustered in large aggregates
- water solubility [2]: fully water-soluble
- stability in air / oxygen and water [3]: air-stable

Substance: ^166Ho@C60(C(COOCH2CH3)2)x
- solubility in THF after derivatization ([2]; tetrahydrofuran): soluble

Substance: Gd@C82(OH)x
- R1 relaxivity [4]: higher R1 values

Substance: C60(C33H48O12)
- solubility of derivative in organic solvents [2]: solubility in a variety of common polar and non-polar organic solvents

Substance: Gd@C60(C(COOH)2)x
- stability in air / oxygen and water [3]: air-stable

Substance: Gd@C60
- solubility class [2]: Insoluble

Substance: Gd@C82
- solubility class [2]: Slightly Soluble

Substance: Gd@C60(C(COOCH2CH3)2)x
- solubility of derivative in organic solvents [2]: solubility in a variety of common polar and non-polar organic solvents
- stability in air / oxygen and water [3]: air-stable

Substance: ^166Ho@C60(C(COONa)2)x
- water solubility [2]: water soluble

— US7671230B2, “Derivatization and solubilization of insoluble classes of fullerenes” (TDA Research, Inc., priority 2001, dated 2010)
